Source: patent US8158628B2, “Sulfonylated 1,2,3,4-tetrahydropyrrolo[1,2-a]pyrazine compounds and their use as pharmaceuticals” (Gruenenthal GmbH, priority 2009, dated 2012)

Target: T1, B1R of the rat (Rattus norvegicus, UniProt P97583)
T1 construct: expressed in transfected cells; host or cells: CHO K1 cells (Chinese hamster ovary), stably transfected
T1 sequence (P97583 1-337): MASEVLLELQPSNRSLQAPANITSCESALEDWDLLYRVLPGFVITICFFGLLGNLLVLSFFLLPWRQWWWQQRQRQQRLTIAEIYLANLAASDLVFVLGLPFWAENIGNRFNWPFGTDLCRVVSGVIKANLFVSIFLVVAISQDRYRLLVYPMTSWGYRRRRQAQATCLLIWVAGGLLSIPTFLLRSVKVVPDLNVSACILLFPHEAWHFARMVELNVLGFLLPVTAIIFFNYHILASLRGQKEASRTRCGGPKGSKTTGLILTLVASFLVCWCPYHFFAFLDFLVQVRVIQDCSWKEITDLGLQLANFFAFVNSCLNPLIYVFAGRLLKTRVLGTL
Assay: FLIPR Ca2+ functional assay, B1R antagonism, rat B1R in CHO K1 cells
Type: cell-based
Conditions: test substance 10 μM; rB1R CHO K1 cells; agonist Des-Arg9 bradykinin at EC80; % of maximum achievable inhibition
How it was run: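 Stably transfected CHO K1 cells loaded with Fluo-4; Ca2+ fluorescence read on FLIPR (ex 488/em 540 nm). Compound preincubated 10-20 min, then agonist at EC80: Lys-Des-Arg9 bradykinin (human) or Des-Arg9 bradykinin (rat). % inhibition vs maximal inhibition; IC50 from concentration series, n=2-3, N>=2.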

| Structure (SMILES) | inhibition at 10 µM |
| --- | --- |
| Cc1cccc(Cl)c1S(=O)(=O)N1CCn2cccc2C1CC(=O)N(C)C(CN1CCOCC1)c1ccccc1 (stereo not drawn) [Example 259, 2-[2-[(2-Chloro-6-methyl-phenyl)sulfonyl]-1,2,3,4-tetrahydro-pyrrolo[1,2-a]pyrazin-1-yl]-N-methyl-N-(2-morpholin-4-yl-1-phenyl-ethyl)-acetamide] | 4.54% |
| Cc1cccc(Cl)c1S(=O)(=O)N1CCn2cccc2C1CC(=O)N1CCN(c2ncccc2C#N)CC1 (stereo not drawn) [Example 261, 2-[4-[2-[2-[(2-Chloro-6-methyl-phenyl)sulfonyl]-1,2,3,4-tetrahydro-pyrrolo[1,2-a]pyrazin-1-yl]-acetyl]-piperazin-1-yl]-pyridine-3-carbonitrile] | 29.8% |
| Cc1cccc(Cl)c1S(=O)(=O)N1CCn2cccc2C1CC(=O)N1CCN(CCO)CC1 (stereo not drawn) [Example 263, 2-[2-[(2-Chloro-6-methyl-phenyl)sulfonyl]-1,2,3,4-tetrahydro-pyrrolo[1,2-a]pyrazin-1-yl]-1-[4-(2-hydroxy-ethyl)-piperazin-1-yl]-ethanone] | 2.37% |
| O=C(CC1c2cccn2CCN1S(=O)(=O)c1ccccc1)N1CCN(Cc2ccc(Cl)c(Cl)c2)CC1 (stereo not drawn) [Example 266, 2-[2-(Benzenesulfonyl)-1,2,3,4-tetrahydro-pyrrolo[1,2-a]pyrazin-1-yl]-1-[4-[(3,4-dichlorophenyl)-methyl]-piperazin-1-yl]-ethanone] | -3.52% |
| CN1CCN(C(=O)CC2c3cccn3CCN2S(=O)(=O)c2ccccc2)C(c2ccccc2)C1 (stereo not drawn) [Example 267, 2-[2-(Benzenesulfonyl)-1,2,3,4-tetrahydro-pyrrolo[1,2-a]pyrazin-1-yl]-1-(4-methyl-2-phenyl-piperazin-1-yl)-ethanone] | -4.75% |
| O=C(CC1c2cccn2CCN1S(=O)(=O)c1ccccc1)N1CCC(c2ccccc2)CC1 (stereo not drawn) [Example 268, 2-[2-(Benzenesulfonyl)-1,2,3,4-tetrahydro-pyrrolo[1,2-a]pyrazin-1-yl]-1-(4-phenyl-piperidin-1-yl)-ethanone] | 28% |
| N#Cc1cccnc1N1CCN(C(=O)CC2c3cccn3CCN2S(=O)(=O)c2cccc(C(F)(F)F)c2)CC1 (stereo not drawn) [Example 269, 2-[4-[2-[2-[[3-(Trifluoromethyl)phenyl]sulfonyl]-1,2,3,4-tetrahydro-pyrrolo[1,2-a]pyrazin-1-yl]-acetyl]-piperazin-1-yl]-pyridine-3-carbonitrile] | 1.05% |

More lines, now with the values ahead:

| inhibition at 10 µM | Structure (SMILES) |
| --- | --- |
| -11.4% | Cc1cccc(Cl)c1S(=O)(=O)N1CCn2cccc2C1CC(=O)N1CCC[C@H]1CN1CCCC1 (stereo partly drawn) [Example 260, 2-[2-[(2-Chloro-6-methyl-phenyl)sulfonyl]-1,2,3,4-tetrahydro-pyrrolo[1,2-a]pyrazin-1-yl]-1-[(2S)-2-(pyrrolidin-1-yl-methyl)-pyrrolidin-1-yl]-ethanone] |
| -12.5% | Cc1cccc(Cl)c1S(=O)(=O)N1CCn2cccc2C1CC(=O)N1CCN(c2ncc(C(F)(F)F)cc2Cl)CC1 (stereo not drawn) [Example 262, 2-[2-[(2-Chloro-6-methyl-phenyl)sulfonyl]-1,2,3,4-tetrahydro-pyrrolo[1,2-a]pyrazin-1-yl]-1-[4-[3-chloro-5-(trifluoromethyl)-pyridin-2-yl]-piperazin-1-yl]-ethanone] |
| 1.78% | O=C(CC1c2cccn2CCN1S(=O)(=O)c1ccccc1)N1CCC[C@H]1CN1CCCC1 (stereo partly drawn) [Example 264, 2-[2-(Benzenesulfonyl)-1,2,3,4-tetrahydro-pyrrolo[1,2-a]pyrazin-1-yl]-1-[(2S)-2-(pyrrolidin-1-yl-methyl)-pyrrolidin-1-yl]-ethanone] |
| 17.9% | O=C(CC1c2cccn2CCN1S(=O)(=O)c1ccccc1)N1CCN(c2ncc(C(F)(F)F)cc2Cl)CC1 (stereo not drawn) [Example 265, 2-[2-(Benzenesulfonyl)-1,2,3,4-tetrahydro-pyrrolo[1,2-a]pyrazin-1-yl]-1-[4-[3-chloro-5-(trifluoromethyl)-pyridin-2-yl]-piperazin-1-yl]-ethanone] |
| 3.1% | CN(C)c1ccc(C2CCCN2C(=O)CC2c3cccn3CCN2S(=O)(=O)c2ccc(C(F)(F)F)cc2Cl)cc1 (stereo not drawn) [Example 270, 2-[2-[[2-Chloro-4-(trifluoromethyl)-phenyl]sulfonyl]-1,2,3,4-tetrahydro-pyrrolo[1,2-a]pyrazin-1-yl]-1-[2-(4-dimethylaminophenyl)-pyrrolidin-1-yl]-ethanone] |
